Assay results: patent US10214542B2, “Modified macrocyclic compounds” (BAYER PHARMA AKTIENGESELLSCHAFT, priority 2015, dated 2019)
Marks after values point to notes of the source that are not given here.

Legend:
[1] = target: T1, human PTEFb (CDK9/Cyclin T1) (Homo sapiens, UniProt P50750); experiment: Surface Plasmon Resonance PTEFb (Method 8); assay type: binding; settings: 37° C., experimental parameters E
T1 construct: purchased ProQinase, Freiburg, Germany

CDK9/CycT1 = target: T2, CDK9/CycT1 (Homo sapiens, UniProt P50750); experiment: CDK9/CycT1 high ATP kinase assay (TR-FRET, Method 1b); assay type: biochemical; settings: 2 mM ATP
T2 construct: Recombinant full-length His-tagged human CDK9 and CycT1; His; purchased Invitrogen PV4131; host or cells: insect cells
Experimental: 1b. CDK9/CycT1 High ATP Kinase Assay
CDK9/CycT1-inhibitory activity of compounds of the present invention at a high ATP concentration after preincubation of enzyme and test compounds was quantified employing the CDK9/CycT1 TR-FRET assay as described in the following paragraphs.
Recombinant full-length His-tagged human CDK9 and CycT1, expressed in insect cells and purified by Ni-NTA affinity chromatography, were purchase from Invitrogen (Cat. No PV4131). As substrate for the kinase reaction biotinylated peptide biotin-Ttds-YISPLKSPYKISEG (C-terminus in amid form) was used which can be purchased e.g. from the company JERINI peptide technologies (Berlin, Germany).
For the assay 50 nl of a 100 fold concentrated solution of the test compound in DMSO was pipetted into a black low volume 384 well microtiter plate (Greiner Bio-One, Frickenhausen, Germany), 2 μl of a solution of CDK9/CycT1 in aqueous assay buffer [50 mM Tris/HCl pH 8.0, 10 mM MgCl2, 1.0 mM dithiothreitol, 0.1 mM sodium ortho-vanadate, 0.01% (v/v) Nonidet-P40 (Sigma)] were added and the mixture was incubated for 15 min at 22° C. to allow pre-binding of the test compounds to the enzyme before the start of the kinase reaction. […] The concentration of CDK9/CycT1 was adjusted depending of the activity of the enzyme lot and was chosen appropriate to have the assay in the linear range, typical concentrations were in the range of 0.5 μg/mL. The reaction was stopped by the addition of 5 μl of a solution of TR-FRET detection reagents (0.2 μM streptavidine-XL665 [Cisbio Bioassays, Codolet, France] and 1 nM anti-RB(pSer807/pSer811)-antibody from BD Pharmingen [#558389] and 1.2 nM LANCE EU-W1024 labeled anti-mouse IgG antibody [Perkin-Elmer, product no. AD0077]) in an aqueous EDTA-solution (100 mM EDTA, 0.2% (w/v) bovine serum albumin in 100 mM HEPES pH 7.5).
The resulting mixture was incubated 1 h at 22° C. to allow the formation of complex between the phosphorylated biotinylated peptide and the detection reagents. Subsequently the amount of phosphorylated substrate was evaluated by measurement of the resonance energy transfer from the Eu-chelate to the streptavidine-XL. Therefore, the fluorescence emissions at 620 nm and 665 nm after excitation at 350 nm was measured in a HTRF reader, e.g. a Rubystar (BMG Labtechnologies, Offenburg, Germany) or a Viewlux (Perkin-Elmer). The ratio of the emissions at 665 nm and at […] was taken as the measure for the amount of phosphorylated substrate. The data were normalised (enzyme reaction without inhibitor=0% inhibition, all other assay components but no enzym=100% inhibition).

CDK2/CycE = target: T3, CDK2/CycE (Homo sapiens, UniProt P24941); experiment: CDK2/CycE high ATP kinase assay (TR-FRET, Method 2b); assay type: biochemical; settings: 2 mM ATP
T3 construct: GST; purchased ProQinase GmbH (Freiburg, Germany); host or cells: insect cells (Sf9)
Experimental: 2b. CDK2/CycE High ATP Kinase Assay:
CDK2/CycE-inhibitory activity of compounds of the present invention at 2 mM adenosine-tri-phosphate (ATP) was quantified employing the CDK2/CycE TR-FRET (TR-FRET=Time Resolved Fluorescence Resonance Energy Transfer) assay as described in the following paragraphs.
Recombinant fusion proteins of GST and human CDK2 and of GST and human CycE, expressed in insect cells (Sf9) and purified by Glutathion-Sepharose affinity chromatography, were purchase from ProQinase GmbH (Freiburg, Germany). As substrate for the kinase reaction biotinylated peptide biotin-Ttds-YISPLKSPYKISEG (C-terminus in amid form) was used which can be purchased e.g. from the company JERINI peptide technologies (Berlin, Germany).
For the assay 50 nl of a 100 fold concentrated solution of the test compound in DMSO was pipetted into a black low volume 384 well microtiter plate (Greiner Bio-One, Frickenhausen, Germany), 2 μl of a solution of CDK2/CycE in aqueous assay buffer [50 mM Tris/HCl pH 8.0, 10 mM MgCl2, 1.0 mM dithiothreitol, 0.1 mM sodium ortho-vanadate, 0.01% (v/v) Nonidet-P40 (Sigma)] were added and the mixture was incubated for 15 min at 22° C. to allow pre-binding of the test compounds to the enzyme before the start of the kinase reaction. Then the kinase reaction was started by the addition of 3 μl of a solution ATP (3.33 mM=>final conc. in the 5 μl assay volume is 2 mM) and substrate (1.25 μM=>final conc. in the 5 μl assay volume is 0.75 μM) in assay buffer and the resulting mixture was incubated for a reaction time of 25 min at 22° C. The concentration of CDK2/CycE was adjusted depending of the activity of the enzyme lot and was chosen appropriate to have the assay in the linear range, typical concentrations were in the range of 15 ng/ml. The reaction was stopped by the addition of 5 μl of a solution of TR-FRET detection reagents (0.2 μM streptavidine-XL665 [Cisbio Bioassays, Codolet, France] and 1 nM anti-RB(pSer807/pSer811)-antibody from BD Pharmingen [#558389] and 1.2 nM LANCE EU-W1024 labeled anti-mouse IgG antibody [Perkin-Elmer, product no. AD0077, as an alternative a Terbium-cryptate-labeled anti-mouse IgG antibody from Cisbio Bioassays can be used]) in an aqueous EDTA-solution (100 mM EDTA, 0.2% (w/v) bovine serum albumin in 100 mM HEPES pH 7.5).
The resulting mixture was incubated 1 h at 22° C. to allow the formation of complex between the phosphorylated biotinylated peptide and the detection reagents. Subsequently the amount of phosphorylated substrate was evaluated by measurement of the resonance energy transfer from the Eu-chelate to the streptavidine-XL. Therefore, the fluorescence emissions at 620 nm and 665 nm after excitation at 350 nm were measured in a TR-FRET reader, e.g. a Rubystar (BMG Labtechnologies, Offenburg, Germany) or a Viewlux (Perkin-Elmer). The ratio of the emissions at 665 nm and at […] was taken as the measure for the amount of phosphorylated substrate. The data were normalised (enzyme reaction without inhibitor=0% inhibition, all other assay components but no enzym=100% inhibition).

[2] = in vivo; cited from earlier work

T2 sequence (P50750 whole entry): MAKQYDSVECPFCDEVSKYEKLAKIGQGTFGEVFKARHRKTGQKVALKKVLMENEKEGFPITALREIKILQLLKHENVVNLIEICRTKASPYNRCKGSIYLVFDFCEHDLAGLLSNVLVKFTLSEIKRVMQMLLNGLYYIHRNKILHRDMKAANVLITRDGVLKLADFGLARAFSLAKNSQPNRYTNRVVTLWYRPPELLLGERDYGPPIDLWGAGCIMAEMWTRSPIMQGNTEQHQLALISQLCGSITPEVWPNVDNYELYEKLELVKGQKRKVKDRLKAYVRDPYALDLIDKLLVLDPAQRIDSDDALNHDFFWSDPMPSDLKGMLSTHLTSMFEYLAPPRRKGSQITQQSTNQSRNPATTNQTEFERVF
T2 sequence (O60563 whole entry partner): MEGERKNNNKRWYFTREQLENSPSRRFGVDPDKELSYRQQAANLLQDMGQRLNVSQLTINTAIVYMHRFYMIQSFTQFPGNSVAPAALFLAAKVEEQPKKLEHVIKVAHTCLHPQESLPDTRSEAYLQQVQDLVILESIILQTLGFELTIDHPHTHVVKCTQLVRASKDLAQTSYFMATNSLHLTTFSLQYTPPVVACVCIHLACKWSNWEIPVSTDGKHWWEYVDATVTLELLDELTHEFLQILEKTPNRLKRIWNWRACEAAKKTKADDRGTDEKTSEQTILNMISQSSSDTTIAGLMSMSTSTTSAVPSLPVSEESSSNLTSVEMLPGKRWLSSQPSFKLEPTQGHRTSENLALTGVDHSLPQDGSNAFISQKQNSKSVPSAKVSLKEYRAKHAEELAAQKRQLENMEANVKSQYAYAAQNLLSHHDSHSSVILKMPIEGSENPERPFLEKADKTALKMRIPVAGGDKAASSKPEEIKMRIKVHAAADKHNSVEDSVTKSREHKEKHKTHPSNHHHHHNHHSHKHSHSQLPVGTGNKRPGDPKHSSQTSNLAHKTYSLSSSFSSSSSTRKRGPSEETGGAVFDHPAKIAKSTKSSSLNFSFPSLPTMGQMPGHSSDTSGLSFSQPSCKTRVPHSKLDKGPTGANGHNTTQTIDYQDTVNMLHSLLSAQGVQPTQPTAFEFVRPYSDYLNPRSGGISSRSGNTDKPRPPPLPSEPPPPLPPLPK
T1 sequence (P50750 whole entry): as the sequence (P50750 whole entry) above
T1 sequence (O60563 whole entry partner): as the sequence (O60563 whole entry partner) above

Target resident time ([1]; 1/koff) | koff ([1]; read-out: Dissociation rate constant koff) [s⁻¹] | IC50 (CDK9/CycT1; Method 1b) [nM] | Selectivity high ATP CDK9 over high ATP CDK2: IC50 (high ATP CDK2)/IC50 (high ATP CDK9) (CDK9/CycT1; Methods 1b and 2b) | IC50 (CDK2/CycE) [nM] | SMILES | duration of protection against bronchospasms [2]
14.7* min | 0.00113 | 3.3 | 224 | 742 | CS(=N)(=O)Cc1cc2cc(c1)Nc1ncc(F)c(n1)-c1ccc(F)cc1OCCCCN2 (racemic) [Example 25, (rac)-16,20-difluoro-9-[(S-methylsulfonimidoyl)methyl]-3,4,5,6-tetrahydro-2H,12H-13,17-(azeno)-11,7-(metheno)-1,6,12,14-benzoxatriazacyclononadecine] | 
 |  |  |  |  | C[N+]1(C)[C@@H]2C[C@@H](OC(=O)C(O)(c3cccs3)c3cccs3)C[C@H]1[C@@H]1O[C@@H]12 [tiotropium] | more than 6 hours
